# Assay results reported in patent US9381173B2, “Isolated stereoisomeric forms of (S)2-N(3-O-(propan 2-Ol)-1-propyl-4-hydroxybenzene)-3-phenylpropylamide” (Novaremed Ltd., priority 2011, dated 2016).
# What was measured:
# Lyn A = Lyn A (Homo sapiens, UniProt P07948); assay: Lyn A mobility-shift kinase assay (Caliper LabChip 3000); format: biochemical; settings: 5 concentrations, duplicate wells; listed as (S,R) enantiomer
# Experimental: (§1) Each compound and concentration was tested in duplicate wells.
# (§2) Data points are the averages of duplicate wells. Error bars represent the mean±replicate % activity.
# [1] = test system: tail flick model for nociceptive pain in mice; assay: Tail flick test for nociceptive pain; format: in vivo; settings: for Mean latency time Post-treatment: 30 minutes after administration; for Mean latency time Pre-treatment: baseline a day before
# Experimental: In the present study the analgesic effect of the substantially pure enantiomers E1 and E2 was evaluated using the tail flick model for nociceptive pain in mice.
# The experiment was performed using male ICR strain 7 weeks old mice (25-27 g) (supplied by Harlan Israel, Ltd.)
# Response to pain was assessed using the tail flick method which utilizes an Ugo Basile tail flick instrument. The animal is placed and held gently on the Ugo Basile tail flick (TF) instrument surface with the tail straight back and above a photoelectric cell that served as heat source. The heat source and timer are turned on by a foot pedal press, and automatically switch off when the animal flicks its tail off the emitter. Latency is measured and analyzed as an analgesic effect.
# Description of the Study: The baseline tail flick was measured a day before the experiment started. On the day of the experiment, animal body weights were first measured followed by the IP administration of the test items (vehicle, morphine, NRD 13 S E1 and E2). 30 minutes after administration of the test items, the animals were subjected to the tail-flick testing. The tail-flick experiments were followed by blood sampling of all groups. The experiment was terminated after spinal cords and brains of all groups have been collected.
# Statistics and Data Evaluation: All parameters are represented as means and standard error of the mean (SEM). Data was analyzed using a two tailed, unpaired T-test to compare each treatment group to the Vehicle treated animals. A two-tailed, paired T-test was used to compare the pre-treatment and post-treatment of each treatment group. Probability values p<0.01 and p<0.05 are considered significant.
# BLK = BLK (Homo sapiens, UniProt P51451); assay: BLK mobility-shift kinase assay (Caliper LabChip 3000); format: biochemical; settings: 5 concentrations, duplicate wells; listed as (S,R) enantiomer
# Experimental: as §1, §2
# Lyn B = Lyn B (Homo sapiens, UniProt P07948); assay: Lyn B mobility-shift kinase assay (Caliper LabChip 3000); format: biochemical; settings: 5 concentrations, duplicate wells; listed as (S,R) enantiomer
# Experimental: as §1, §2
# [2] = test system: spinal nerve ligation (SNL or Chung) model for neuropathic pain in rats; assay: Spinal nerve ligation (Chung) model, Von Frey test for mechanical allodynia; format: in vivo
# Experimental: The antinociceptive and analgesic activity of E1 in a spinal nerve ligation (SNL or Chung) model for neuropathic pain in rats was evaluated.
# On study day 0, all animals underwent Chung surgery, which consisted of an operation where the left L5-L6 spinal nerves were isolated and cut. Fourteen days post surgery the animals were selected using pain threshold results from the Von Frey test. Only animals that indicated signs of mechanical allodynia were included in the study. After the selection process, the animals were grouped and Test Items were administered via IP. The pain response was measured using Von Frey methodology at 2, 5 and 24 hours after Test Item administration on study day 14, and at 2, 5, 24 and 48 hours on study day 21 after 7 days of Test Item administration.
# Species: 50 SD young adult male rats, 225-260 g at study initiation (Harlan Laboratories, Israel. Ltd.)
# Neuropathic Pain Induction: While under anesthesia using ketamine/xylazine sodium and after the area was shaved, the rat was placed in a prone position and the left paraspinal muscles were separated from the spinous process at the L4-S2 levels. The L6 vertebral transverse process was carefully removed with a small rongeur to visually identify the L5-L6 spinal nerves. The left L5-L6 spinal nerves were cut. The muscle was then closed with 4-0 silk sutures and the skin was closed by a clamp. Following surgery, the rats were returned to the cage and remained under a heating lamp until they awoke.
# Inclusion/Exclusion Criteria for Pre-Selection: On post-operative day 14, animals were tested for mechanical allodynia using Von Frey methodology prior to being placed in their experimental groups. Only animals with a pain threshold of ≦26 g for the operated leg were included in the study. In order to form homogenous treatment groups and to adhere to randomization, all the operated rats were grouped according to inclusion/exclusion criteria.
# The Von Frey test was performed prior to Test Items' administrations (pre-TI injection) and at 2 and 5 hours after TI administration (post-TI injection) on study days 14 and 21.
# Von Frey test was performed prior to TI's administration on study day 15 (24 hours post-TI's administration on study day 14) and on study days 22 and 23 (24 and 48 hours respectively post-TI's administration on study day 21).
# Pain Response Evaluation: Pain response was evaluated using Von Frey test for mechanical allodynia.
# The Von Frey test for mechanical allodynia is based on applying short pulses of pressure that are not painful to a naive animal. In fact, in order to achieve paw withdrawal from a naive animal, the pressure applied is sometimes higher than 60 g. This often requires the researcher to apply enough pressure with the Von Frey filament to actually lift the paw of the naive animal. However, in disease conditions, the animals are sensitive to much lower pressure and experience pain as a result of a normally non-painful stimulus.
# Mechanical Allodynia Evaluation (Von Frey Testing): Allodynic response to tactile stimulation was assessed using the Von Frey apparatus (Touch®).
# The rats were placed in an enclosure and positioned on a metal mesh surface, but allowed to move freely. The rats' cabins were covered with red cellophane to diminish environmental disturbances. The test began after cessation of exploratory behavior. The set of Von Frey monofilaments provide an approximate logarithmic scale of actual force and a linear scale of perceived intensity as provided by the manufacturer of the Von Frey apparatus (Ugo Basil). The operating principle: When the tip of a fiber of given length and diameter is pressed against the skin at right angles, the force of application increases as long as the researcher continues to advance the probe until the fiber bends. After the fiber bends, the probe continues to advance, causing the fiber to bend more, but without additional force being applied to the paw. […]
# [3] = Body weight in the Chung model study; format: in vivo, rats
# Experimental: Body Weights: Body weight was measured at regular intervals on study days −1 for baseline values and seven days after the surgery (study day 7).
# [4] = 150 mg/kg IP (group 2), before first dose
# [5] = 150 mg/kg IP on days 14, 15, 21 (group 2)
# [6] = 150 mg/kg IP, study day 14, 2 hours
# [7] = 150 mg/kg IP, study day 21, 2 hours
# Chain of Lyn B (P07948 1-491 isoform P07948-2, species assumed): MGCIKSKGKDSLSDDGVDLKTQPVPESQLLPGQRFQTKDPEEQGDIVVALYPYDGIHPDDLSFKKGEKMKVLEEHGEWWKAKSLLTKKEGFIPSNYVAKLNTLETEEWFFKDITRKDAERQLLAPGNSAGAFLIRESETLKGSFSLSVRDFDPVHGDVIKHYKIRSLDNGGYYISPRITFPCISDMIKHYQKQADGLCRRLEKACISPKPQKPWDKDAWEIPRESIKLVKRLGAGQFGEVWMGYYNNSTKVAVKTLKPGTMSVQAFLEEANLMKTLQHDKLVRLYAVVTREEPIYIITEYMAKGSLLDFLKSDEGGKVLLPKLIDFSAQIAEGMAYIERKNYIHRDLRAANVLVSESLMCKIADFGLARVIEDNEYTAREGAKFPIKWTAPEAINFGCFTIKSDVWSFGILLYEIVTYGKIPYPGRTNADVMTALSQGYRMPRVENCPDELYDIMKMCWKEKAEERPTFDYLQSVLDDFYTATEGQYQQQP
# Chain of BLK (P51451 whole entry, species assumed): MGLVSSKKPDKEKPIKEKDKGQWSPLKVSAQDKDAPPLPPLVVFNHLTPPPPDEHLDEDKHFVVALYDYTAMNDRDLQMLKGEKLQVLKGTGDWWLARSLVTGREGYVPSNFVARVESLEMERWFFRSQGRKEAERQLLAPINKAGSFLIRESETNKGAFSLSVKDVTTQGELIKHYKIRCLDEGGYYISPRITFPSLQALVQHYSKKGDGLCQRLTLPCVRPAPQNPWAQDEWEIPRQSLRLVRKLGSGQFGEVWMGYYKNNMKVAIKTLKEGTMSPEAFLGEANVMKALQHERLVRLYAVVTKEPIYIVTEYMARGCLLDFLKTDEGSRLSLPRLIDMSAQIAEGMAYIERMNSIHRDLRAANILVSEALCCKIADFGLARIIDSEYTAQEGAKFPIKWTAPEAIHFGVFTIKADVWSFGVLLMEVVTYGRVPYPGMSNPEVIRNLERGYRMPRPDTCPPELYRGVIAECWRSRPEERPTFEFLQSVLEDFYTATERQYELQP
# Chain of Lyn A (P07948 whole entry, species assumed): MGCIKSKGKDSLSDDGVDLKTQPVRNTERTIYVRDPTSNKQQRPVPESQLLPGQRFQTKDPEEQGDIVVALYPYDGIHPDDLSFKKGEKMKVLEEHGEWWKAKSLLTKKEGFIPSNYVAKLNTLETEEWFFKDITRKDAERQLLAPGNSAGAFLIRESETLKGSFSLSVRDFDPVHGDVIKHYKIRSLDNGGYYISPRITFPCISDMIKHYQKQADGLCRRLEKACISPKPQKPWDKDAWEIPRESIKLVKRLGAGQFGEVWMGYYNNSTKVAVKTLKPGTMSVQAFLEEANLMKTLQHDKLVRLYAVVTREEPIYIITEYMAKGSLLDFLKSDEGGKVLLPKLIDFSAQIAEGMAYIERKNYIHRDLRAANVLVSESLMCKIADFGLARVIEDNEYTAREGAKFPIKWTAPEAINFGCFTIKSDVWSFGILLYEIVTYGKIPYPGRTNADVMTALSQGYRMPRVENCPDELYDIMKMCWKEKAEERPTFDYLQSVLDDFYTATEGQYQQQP
structure (smiles),measurement,setting,value
"CC(O)COCC(Cc1ccc(O)cc1)NC(=O)CCc1ccccc1 [E2, (S)2-N(3-O—((R)propan 2-ol)-1-propyl-4-hydroxybenzene)-3-phenylpropylamide]",modulation of LynA tyrosine kinase activity,Lyn A,inhibited
same,difference in tail flick latency times,[1]; 10 mg/kg IP,did not cause any statistically significant difference
same,increase of latency time between pretreatment and post treatment,[1]; 10 mg/kg IP,not statistically significant
same,reducing pain when compared to the Vehicle,[1]; 10 mg/kg IP,not significantly active in reducing pain
same,Δ of latency time post- and pre-treatment,"[1]; 10 mg/kg IP (groups 4, 6)",0.63 ± 0.87 s
same,Mean latency time Post-treatment,"[1]; 10 mg/kg IP (groups 4, 6)",8.93 ± 0.93 s
same,Mean latency time Pre-treatment,"[1]; 10 mg/kg IP (groups 4, 6)",8.30 ± 0.46 s
same,conclusion: activity in tail flick study,[1]; dose of 10 mg/kg,not active
same,pain analgesic in animal models of pain,"[1]; summary statement, listed as (S,R) enantiomer",ineffective or less effective
same,modulation of BLK tyrosine kinase activity,BLK,inhibited
same,modulation of LynB tyrosine kinase activity,Lyn B,inhibited
"NCC1(CC(=O)O)CCCCC1 [Gabapentin, reference compound]","delta force right minus left leg, Day 14 Post-treatment 5 hours",[2]; 150 mg/kg IP (group 2),48.20 ± 1.85 g
same,"mean Von Frey force, left operated leg, Day 14 Post-treatment 5 hours",[2]; 150 mg/kg IP (group 2),11.80 ± 1.85 g
same,"delta force right minus left leg, Day 14 Pretreatment",[2]; [4],50.00 ± 0.88 g
same,"mean Von Frey force, left operated leg, Day 14 Pretreatment",[2]; [4],10.00 ± 0.88 g
same,"difference (delta) force between right healthy leg and left operated leg, Baseline","[2]; 150 mg/kg IP (group 2), before operation",0.00 ± 0.00 g
same,"mean Von Frey force required for withdrawal of the left operated leg, Baseline","[2]; 150 mg/kg IP (group 2), day -1, before operation",53.20 ± 4.53 g
same,"delta force right minus left leg, Day 21 Post-treatment 5 hours",[2]; [5],47.40 ± 1.85 g
same,"delta force right minus left leg, Day 21 Post-treatment 24 hours",[2]; [5],46.60 ± 2.29 g
same,"delta force right minus left leg, Day 21 Post-treatment 48 hours",[2]; [5],50.50 ± 0.69 g
same,"delta force right minus left leg, Day 21 Pretreatment",[2]; [5],49.80 ± 0.85 g
same,"mean Von Frey force, left operated leg, Day 21 Post-treatment 5 hours",[2]; [5],12.60 ± 1.85 g
same,"mean Von Frey force, left operated leg, Day 21 Post-treatment 24 hours",[2]; [5],13.40 ± 2.29 g
same,"mean Von Frey force, left operated leg, Day 21 Post-treatment 48 hours",[2]; [5],9.50 ± 0.69 g
same,"mean Von Frey force, left operated leg, Day 21 Pretreatment",[2]; [5],10.20 ± 0.85 g
same,conclusion: analgesic activity of the positive control,"[2]; 150 mg/kg IP, 2 hours after administration on study days 14 and 21",active
same,conclusion: analgesic activity of the positive control,"[2]; 150 mg/kg IP, 5 hours, 24 hours and 48 hours post dosing",no longer detected
same,inhibition of allodynia compared to the pretreatment value of delta withdrawal force,"[2]; 150 mg/kg IP, day 14, 2 hours",inhibited allodynia
same,inhibition of allodynia compared to the pretreatment value of delta withdrawal force,"[2]; 150 mg/kg IP, day 14, 5 hours",not effective
same,"pain relief activity, delta withdrawal force between the two legs vs. Vehicle","[2]; 150 mg/kg IP, day 14 and day 21, 2 hours",significant pain relief activity
same,inhibition of allodynia compared to the pretreatment value of delta withdrawal force,"[2]; 150 mg/kg IP, day 21, 2 hours",effectively inhibited allodynia
same,inhibition of allodynia (Von Frey) compared to the Vehicle control,[2]; [6],inhibited allodynia
same,inhibition of allodynia (Von Frey) compared to the pretreatment value,[2]; [6],inhibited allodynia
same,inhibition of allodynia (Von Frey) compared to the Vehicle control,"[2]; 150 mg/kg IP, study day 14, 5 hours",not effective
same,inhibition of allodynia (Von Frey) compared to the pretreatment value,"[2]; 150 mg/kg IP, study day 14, 24 hours",not effective
same,inhibition of allodynia (Von Frey) compared to the Vehicle control,[2]; [7],effectively inhibited allodynia
same,inhibition of allodynia (Von Frey) compared to the pretreatment value,[2]; [7],inhibited allodynia
same,inhibition of allodynia (Von Frey) compared to the Vehicle control,"[2]; 150 mg/kg IP, study day 21, 5 hours",not effective
same,duration of analgesic effect post administration,[2]; summary statement,≤ 5 h
same,Mean group body weight Day 14,"[3]; 150 mg/kg IP (group 2), before first administration",283.30 ± 2.53 g
same,Mean group body weight Day 7,"[3]; 150 mg/kg IP (group 2), before treatment",255.20 ± 2.83 g
same,Mean group body weight Baseline,"[3]; 150 mg/kg IP (group 2), study day -1, before surgery and treatment",242.10 ± 2.44 g
same,Mean group body weight Day 21,[3]; [5],307.90 ± 3.42 g
"CN1CC[C@]23c4c5ccc(O)c4O[C@H]2[C@@H](O)C=C[C@H]3[C@H]1C5 [Morphine, reference compound]",Mean latency time Post-treatment,[1]; 5 mg/kg IP (group 2),15.38 ± 1.47 s
same,Mean latency time Pre-treatment,[1]; 5 mg/kg IP (group 2),7.92 ± 0.17 s
same,Mean latency time Pre-treatment,"[1]; 5 mg/kg IP (group 2), listed as morphine",7.92 ± 0.17 s
